Test results reported in PMC9274761, “Effects of Structurally Different HDAC Inhibitors against Trypanosoma cruzi, Leishmania, and Schistosoma mansoni” (ACS Infectious Diseases, 2022).

Legend:
[1] = target: HDAC2 (Homo sapiens, UniProt Q92769); experiment: HDAC2 protease-coupled fluorescence (AMC) inhibition assay; type: biochemical; details: hr enzyme, 10-dose, 3-fold dilution from 50 μM (3: from 300 μM); read-out: IC50 against HDAC2
Source text: (§1) The new hydroxamates 2 and 6 were screened and profiled via a protease-coupled assay in which the quantification of HDAC enzyme activity is based on the formation of a free fluorescent group, the 7-amino-4-methyl coumarin (AMC).[42] […] After deacetylation by HDACs, the de(trifluoro)acetylated AMC–peptides were sensitive toward lysine peptidase and free fluorogenic AMC was generated and quantified.[42]
(§2) To gain insights into its inhibition profile for human HDACs, we tested 3 against hrHDACs 1–6 and 8 following the above procedure (Table 1).
(§3) Individual IC50 values for each HDAC isozyme were measured with the homogeneous fluorescence release HDAC assay.[42]

[2] = target: HDAC4 (Homo sapiens, UniProt P56524); experiment: HDAC4 protease-coupled fluorescence (AMC) inhibition assay; type: biochemical; details: hr enzyme, class IIa substrate Boc-Lys(trifluoroacetyl)-AMC; read-out: IC50 against HDAC4
Source text: as §1, §2, §3

[3] = target: HDAC3 (Homo sapiens, UniProt O15379); experiment: HDAC3 protease-coupled fluorescence (AMC) inhibition assay; type: biochemical; details: hr enzyme, 10-dose, 3-fold dilution from 50 μM (3: from 300 μM); read-out: IC50 against HDAC3
Source text: as §1, §2, §3

[4] = system: L. donovani axenic amastigotes; experiment: Resazurin reduction assay, L. donovani axenic amastigotes; type: cell-based; details: Leishmania donovani, read-out: percentage of inhibition, L. donovani axenic amastigotes
[5] = target: T1, HDAC8 (Homo sapiens, UniProt Q9BY41); experiment: HDAC8 protease-coupled fluorescence (AMC) inhibition assay; type: biochemical; details: hr enzyme, substrate RHK(Ac)K(Ac)AMC; read-out: IC50 against HDAC8
T1 sequence (Q9BY41 1-377): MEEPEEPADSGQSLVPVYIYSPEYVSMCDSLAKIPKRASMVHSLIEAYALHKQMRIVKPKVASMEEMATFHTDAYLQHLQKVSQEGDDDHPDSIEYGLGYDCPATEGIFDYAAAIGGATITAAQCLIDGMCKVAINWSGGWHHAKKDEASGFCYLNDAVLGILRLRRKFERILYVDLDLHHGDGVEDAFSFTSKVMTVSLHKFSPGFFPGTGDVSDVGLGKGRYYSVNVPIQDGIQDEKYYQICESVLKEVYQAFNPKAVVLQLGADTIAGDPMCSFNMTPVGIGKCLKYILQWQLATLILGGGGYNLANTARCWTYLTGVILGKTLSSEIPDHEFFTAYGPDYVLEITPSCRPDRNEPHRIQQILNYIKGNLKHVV
Source text: as §1, §2, §3

HDAC3, sequence (O15379 whole entry): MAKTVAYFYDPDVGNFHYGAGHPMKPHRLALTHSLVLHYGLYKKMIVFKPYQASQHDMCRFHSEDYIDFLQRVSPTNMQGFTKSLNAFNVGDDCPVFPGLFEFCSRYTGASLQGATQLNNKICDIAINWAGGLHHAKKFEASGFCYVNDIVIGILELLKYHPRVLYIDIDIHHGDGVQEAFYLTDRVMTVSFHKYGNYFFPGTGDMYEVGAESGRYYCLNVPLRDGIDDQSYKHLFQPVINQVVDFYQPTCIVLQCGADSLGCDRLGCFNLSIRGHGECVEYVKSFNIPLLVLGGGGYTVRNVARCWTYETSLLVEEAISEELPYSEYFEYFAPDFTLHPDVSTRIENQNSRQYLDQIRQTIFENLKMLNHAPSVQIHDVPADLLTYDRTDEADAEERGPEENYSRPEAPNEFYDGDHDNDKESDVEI
HDAC3, sequence (Q9Y618 395-489 partner limits assumed): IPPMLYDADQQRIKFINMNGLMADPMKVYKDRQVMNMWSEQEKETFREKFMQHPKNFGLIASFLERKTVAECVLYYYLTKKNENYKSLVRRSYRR
HDAC4, sequence (P56524 whole entry): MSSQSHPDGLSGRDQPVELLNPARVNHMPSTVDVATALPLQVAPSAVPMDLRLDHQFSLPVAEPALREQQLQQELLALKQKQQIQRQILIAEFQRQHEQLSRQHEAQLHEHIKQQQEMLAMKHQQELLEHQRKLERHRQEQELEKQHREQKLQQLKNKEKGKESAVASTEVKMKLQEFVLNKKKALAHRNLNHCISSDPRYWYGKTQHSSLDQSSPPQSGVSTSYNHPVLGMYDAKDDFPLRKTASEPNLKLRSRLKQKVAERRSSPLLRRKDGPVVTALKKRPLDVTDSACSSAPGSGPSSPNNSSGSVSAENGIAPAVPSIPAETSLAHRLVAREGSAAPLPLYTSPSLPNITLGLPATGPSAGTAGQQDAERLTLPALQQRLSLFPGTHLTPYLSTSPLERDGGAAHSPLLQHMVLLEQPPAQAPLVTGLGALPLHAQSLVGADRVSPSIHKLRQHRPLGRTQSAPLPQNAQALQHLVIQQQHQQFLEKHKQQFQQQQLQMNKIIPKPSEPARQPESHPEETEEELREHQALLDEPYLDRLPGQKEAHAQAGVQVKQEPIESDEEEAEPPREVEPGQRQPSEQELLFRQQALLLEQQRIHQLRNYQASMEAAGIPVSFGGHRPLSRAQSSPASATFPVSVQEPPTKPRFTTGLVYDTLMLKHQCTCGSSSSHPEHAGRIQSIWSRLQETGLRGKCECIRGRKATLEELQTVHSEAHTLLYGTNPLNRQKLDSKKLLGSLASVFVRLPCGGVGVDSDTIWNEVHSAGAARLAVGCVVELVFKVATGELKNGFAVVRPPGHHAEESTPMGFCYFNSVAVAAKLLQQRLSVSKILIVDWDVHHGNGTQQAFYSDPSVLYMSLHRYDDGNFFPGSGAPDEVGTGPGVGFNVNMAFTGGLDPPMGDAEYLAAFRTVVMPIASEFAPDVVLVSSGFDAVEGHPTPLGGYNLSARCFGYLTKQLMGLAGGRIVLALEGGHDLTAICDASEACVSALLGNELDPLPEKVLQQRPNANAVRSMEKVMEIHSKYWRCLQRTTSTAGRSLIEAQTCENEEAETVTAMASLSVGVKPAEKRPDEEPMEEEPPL
HDAC2, sequence (Q92769 whole entry): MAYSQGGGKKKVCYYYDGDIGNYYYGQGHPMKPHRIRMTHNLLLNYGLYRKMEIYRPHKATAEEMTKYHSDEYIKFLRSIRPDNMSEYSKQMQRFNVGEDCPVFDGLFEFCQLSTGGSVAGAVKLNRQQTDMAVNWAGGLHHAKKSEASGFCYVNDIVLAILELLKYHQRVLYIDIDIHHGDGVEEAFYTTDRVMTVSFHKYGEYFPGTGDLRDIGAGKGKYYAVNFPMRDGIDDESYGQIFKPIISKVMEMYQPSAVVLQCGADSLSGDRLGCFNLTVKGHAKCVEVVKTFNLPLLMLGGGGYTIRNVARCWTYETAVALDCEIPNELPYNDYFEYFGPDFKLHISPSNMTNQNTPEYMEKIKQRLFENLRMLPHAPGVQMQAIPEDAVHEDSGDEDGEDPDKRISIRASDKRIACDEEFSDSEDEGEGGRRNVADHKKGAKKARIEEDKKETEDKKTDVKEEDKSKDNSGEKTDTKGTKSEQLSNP

SMILES | IC50 [1] | IC50 [2] | IC50 [3] | inhibition at 0.8 µM [4] | inhibition at 4 µM [4] | inhibition at 20 µM [4] | IC50 [5]
CN(C)Cc1ccc(S(=O)(=O)n2ccc3cc(/C=C/C(=O)NO)ccc32)cc1 [Compound 6, 3-(1-((4-((Dimethylamino)methyl)phenyl)sulfonyl)-1H-indol-5-yl)-N-hydroxy Acrylamide] | 3490 nM | 16700 nM | 380 nM | 39.9 ± 2.1% | 0.1 ± 0.8% | 39.6 ± 5.5% | 1870 nM
O=C(/C=C/c1ccc(CSc2nc(Cl)cc(-c3ccccc3)n2)cc1)NO [Compound 2, 3-(4-(((4-Chloro-6-phenylpyrimidin-2-yl)thio)methyl)phenyl)-N-hydroxy Acrylamide] | 4110 nM | 17300 nM | 530 nM | 16.4 ± 18.6% | 7.8 ± 1.1% | 60.2 ± 1.4% | 2220 nM
